Results on 52 molecules are retold here after ChEMBL document CHEMBL1828558, “Discovery of (+)-N-(3-aminopropyl)-N-[1-(5-benzyl-3-methyl-4-oxo-[1,2]thiazolo[5,4-d]pyrimidin-6-yl)-2-methylpropyl]-4-methylbenzamide (AZD4877), a kinesin spindle protein inhibitor and potential anticancer agent” (J Med Chem, 2011).

pIC50: −log10 of the molar value.

The subject of test [1] is COLO 205. The test is described as follows: Anticancer activity against human COLO205 cells after 72 hrs by MTS/PMS assay. The test is classed as functional, cell-based.
For test [2], the target named is T1, Kinesin-like protein KIF11 (Homo sapiens, UniProt P52732).
T1 sequence (P52732 whole entry): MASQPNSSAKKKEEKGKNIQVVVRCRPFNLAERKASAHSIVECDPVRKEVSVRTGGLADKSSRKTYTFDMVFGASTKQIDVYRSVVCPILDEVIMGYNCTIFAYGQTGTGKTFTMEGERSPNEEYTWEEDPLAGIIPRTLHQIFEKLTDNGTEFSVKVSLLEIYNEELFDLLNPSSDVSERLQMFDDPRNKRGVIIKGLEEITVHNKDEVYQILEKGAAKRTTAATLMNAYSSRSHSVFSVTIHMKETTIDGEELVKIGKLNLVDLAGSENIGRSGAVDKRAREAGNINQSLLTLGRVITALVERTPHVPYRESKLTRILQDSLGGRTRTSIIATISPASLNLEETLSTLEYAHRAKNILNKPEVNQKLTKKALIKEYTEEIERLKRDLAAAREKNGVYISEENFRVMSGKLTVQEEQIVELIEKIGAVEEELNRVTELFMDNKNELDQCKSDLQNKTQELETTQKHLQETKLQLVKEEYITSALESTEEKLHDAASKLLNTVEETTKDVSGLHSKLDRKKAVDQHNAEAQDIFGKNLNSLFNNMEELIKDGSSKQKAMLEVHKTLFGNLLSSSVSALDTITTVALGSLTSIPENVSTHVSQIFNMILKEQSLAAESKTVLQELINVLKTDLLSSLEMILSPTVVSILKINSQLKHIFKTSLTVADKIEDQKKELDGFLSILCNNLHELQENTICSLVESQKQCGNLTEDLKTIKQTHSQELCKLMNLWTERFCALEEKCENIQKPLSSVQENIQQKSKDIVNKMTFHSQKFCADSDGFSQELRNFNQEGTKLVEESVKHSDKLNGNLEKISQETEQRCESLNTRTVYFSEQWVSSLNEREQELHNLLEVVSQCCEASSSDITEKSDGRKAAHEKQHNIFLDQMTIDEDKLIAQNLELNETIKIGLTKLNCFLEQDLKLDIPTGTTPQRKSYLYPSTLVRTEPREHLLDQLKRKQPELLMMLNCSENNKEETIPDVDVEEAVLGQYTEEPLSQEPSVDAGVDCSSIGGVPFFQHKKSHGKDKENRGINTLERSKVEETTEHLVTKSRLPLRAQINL
The test is described as follows: Inhibition of human recombinant C-terminal His6-tagged KSP ATPase activity after 1 hr by malachite green assay.

As to `CCC(c1nc2sc(Cl)cc2c(=O)n1Cc1ccccc1)N(CCCN)C(=O)c1ccc(C)cc1` (stereo not drawn), the pIC50 in test [1] (Homo sapiens, COLO 205, 72 h) was 6.33; in test [2], 7.07.

With `CCC(c1nc2ccsc2c(=O)n1Cc1ccccc1)N(CCCNC(=O)OC(C)(C)C)C(=O)c1ccc(C)cc1` (stereo not drawn), the pIC50 in test [2] was 5.00.

`CCC(c1nc2ccsc2c(=O)n1Cc1ccccc1)N(CCCN)C(=O)c1ccc(F)cc1` (stereo not drawn): the pIC50 in test [1] (Homo sapiens, COLO 205, 72 h) was 6.24; in test [2], 6.85.

With `CCC(c1nc2ccsc2c(=O)n1Cc1ccccc1)N(CCCN)C(=O)c1ccc(Cl)cc1Cl` (stereo not drawn), the pIC50 was 6.51 in test [1] (Homo sapiens, COLO 205, 72 h) and 6.82 in test [2].

As for `CCC(c1nc2ccsc2c(=O)n1Cc1ccccc1)N(CCCN)C(=O)c1ccc(Cl)cc1` (stereo not drawn), the pIC50 in test [1] (Homo sapiens, COLO 205, 72 h) is 6.70; in test [2], 7.30.

For `CCC(c1nc2sc(Br)cc2c(=O)n1Cc1ccccc1)N(CCCN)C(=O)c1ccc(C)cc1` (stereo not drawn), the pIC50 in test [1] (Homo sapiens, COLO 205, 72 h) was 6.12; in test [2] it was 6.85.

For `CCC(c1nc2ccoc2c(=O)n1Cc1ccccc1)N(CCCN)C(=O)c1ccc(C)cc1` (stereo not drawn), the negative-log IC50 (pIC50) in test [1] (Homo sapiens, COLO 205, 72 h) is 6.76; in test [2] it was 7.89.

Consider `CCC(c1nc2nccnc2c(=O)n1Cc1ccccc1)N(CCCN)C(=O)c1ccc(C)cc1` (stereo not drawn), for which the pIC50 in test [2] was 5.26.

Regarding `CCC(c1nc2ccsc2c(=O)n1Cc1ccccc1)N(CCCN)C(=O)c1ccc2c(c1)OCO2` (stereo not drawn), the negative-log IC50 (pIC50) in test [1] (Homo sapiens, COLO 205, 72 h) is 6.59; in test [2] it was 6.82.

Consider `CCC(c1nc2ccsc2c(=O)n1Cc1ccccc1)N(CC1CCNCC1)C(=O)c1ccc(C)cc1` (stereo not drawn), for which the pIC50 was 5.00 in test [1] (Homo sapiens, COLO 205, 72 h) and 5.84 in test [2].

For the molecule `CCC(c1nc2ccsc2c(=O)n1Cc1ccc(OC)cc1)N(CCCN)C(=O)c1ccc(C)cc1` (stereo not drawn), the pIC50 in test [1] (Homo sapiens, COLO 205, 72 h) was 6.10; in test [2] it was 6.80.

With `CCC(c1nc2ccn(C)c2c(=O)n1Cc1ccccc1)N(CCCN)C(=O)c1ccc(C)cc1` (stereo not drawn), the pIC50 in test [1] (Homo sapiens, COLO 205, 72 h) was 7.37; in test [2], 7.68.

Turning to `CCC(c1nc2ccsc2c(=O)n1Cc1ccccc1)N(CCCN)C(=O)c1ccc(C)cc1` (stereo not drawn), the pIC50 in test [1] (Homo sapiens, COLO 205, 72 h) is 7.00; in test [2] it was 8.00.

Regarding `CCC(c1nc2ccsc2c(=O)n1Cc1ccccc1F)N(CCCN)C(=O)c1ccc(C)cc1` (stereo not drawn), the pIC50 was 5.87 in test [1] (Homo sapiens, COLO 205, 72 h) and 6.85 in test [2].

For `CCC(c1nc2ccsc2c(=O)n1Cc1ccccc1)N(CCCN)C(=O)c1ccno1` (stereo not drawn), the pIC50 in test [2] is 5.86.

As for `CCC(c1nc2c(C)nsc2c(=O)n1Cc1ccccc1)N(CCCN)C(=O)c1ccc(C)cc1` (stereo not drawn), the pIC50 in test [1] (Homo sapiens, COLO 205, 72 h) was 7.35; in test [2], 8.30.

Turning to `CCC(c1nc2sccc2c(=O)n1Cc1ccccc1)N(CCCN)C(=O)c1ccc(C)cc1` (single isomer, unassigned; (+)), the pIC50 was 8.10 in test [1] (colo 205) and 8.52 in test [2].

In the case of `CCC(c1nc2ccsc2c(=O)n1Cc1ccccc1)N(CCCN)C(=O)c1ccc2ccccc2c1` (stereo not drawn), the pIC50 is 6.70 in test [1] (Homo sapiens, COLO 205, 72 h) and 7.52 in test [2].

As to `CCC(c1nc2ccsc2c(=O)n1Cc1ccccc1)N(CCCN)C(=O)c1ccc(C#N)cc1` (stereo not drawn), in test [2], the negative logarithm of the IC50 (pIC50) is 5.57.

In the case of `Cc1ccc(C(=O)N(CCCN)C(c2nc3snc(C)c3c(=O)n2Cc2ccccc2)C(C)C)cc1F` (single isomer, unassigned; (+)), in test [1] (Homo sapiens, COLO 205, 72 h), the pIC50 was 8.00.

In the case of `CCC(c1nc2ccsc2c(=O)n1Cc1ccccc1)N(CCCN)C(=O)c1ccc2nccnc2c1` (stereo not drawn), the pIC50 in test [2] is 5.49.

In the case of `CCc1ccc(C(=O)N(CCCN)C(CC)c2nc3ccsc3c(=O)n2Cc2ccccc2)cc1` (stereo not drawn), the pIC50 in test [1] (Homo sapiens, COLO 205, 72 h) is 6.60; in test [2], 7.05.

`CCC(c1nc2sccc2c(=O)n1Cc1ccccc1)N(CCCN)C(=O)c1ccc(C)cc1` (single isomer, unassigned; (-)): the pIC50 in test [2] is 5.72.

Regarding `CCC(c1nc2ccsc2c(=O)n1Cc1ccccc1)N(CCCN)C(=O)c1ccc(C(=O)OC)cc1` (stereo not drawn), in test [2], the pIC50 is 5.22.

With `CCCCC(=O)N(CCCN)C(CC)c1nc2ccsc2c(=O)n1Cc1ccccc1` (stereo not drawn), in test [2], the pIC50 is 5.26.

Turning to `CCC(c1nc2snc(C)c2c(=O)n1Cc1ccccc1)N(CCCN)C(=O)c1ccc(C)cc1` (single isomer, unassigned; (-)), the pIC50 in test [2] was 7.29.

Consider `CCC(c1nc2ccsc2c(=O)n1Cc1ccccc1)N(CCCN)C(=O)CC(C)C` (stereo not drawn), for which, in test [2], the pIC50 is 5.34.

On to `Cc1ccc(C(=O)N(CCCN)C(c2nc3snc(C)c3c(=O)n2Cc2cccc(F)c2)C(C)C)cc1` (single isomer, unassigned; (+)), for which the pIC50 in test [1] (Homo sapiens, COLO 205, 72 h) was 8.30.

`Cc1ccc(C(=O)N(CCCN)C(c2nc3snc(C)c3c(=O)n2Cc2ccc(F)cc2)C(C)C)cc1` (stereo not drawn) showed a pIC50 in test [1] (Homo sapiens, COLO 205, 72 h) of 7.72.

The molecule `Cc1nsc2nc(C(C(C)C)N(CCCN)C(=O)c3ccc(Br)cc3)n(Cc3ccccc3)c(=O)c12` (stereo not drawn) showed a pIC50 in test [1] (Homo sapiens, COLO 205, 72 h) of 8.22.

As for `CCC(c1nc2ccsc2c(=O)n1Cc1ccccc1)N(CCCN)C(=O)C1CCC(OC)CC1` (stereo not drawn), the pIC50 in test [2] was 5.05.

As to `CCC(c1nc2ccsc2c(=O)n1Cc1ccccc1)N(CCCN)C(=O)c1cc2ccccc2s1` (stereo not drawn), in test [2], the negative-log IC50 (pIC50) was 7.40.

Turning to `CCC(c1nc2ccsc2c(=O)n1Cc1ccccc1)N(CCCNS(C)(=O)=O)C(=O)c1ccc(C)cc1` (stereo not drawn), in test [2], the pIC50 is 5.22.

Molecule `CCC(c1nc2snc(C)c2c(=O)n1Cc1ccccc1)N(CCCN)C(=O)c1ccc(Br)cc1` (stereo not drawn) gave a pIC50 in test [1] (Homo sapiens, COLO 205, 72 h) of 7.85.

Take `CCC(c1nc2ccsc2c(=O)n1Cc1ccccc1)N(CCCN)C(=O)c1sccc1C` (stereo not drawn): the pIC50 in test [2] is 6.39.

Take `CCC(c1nc2ccsc2c(=O)n1Cc1ccncc1)N(CCCN)C(=O)c1ccc(C)cc1` (stereo not drawn): in test [2], the pIC50 was 5.27.

`CCC(c1nc2snc(C)c2c(=O)n1Cc1cccc(F)c1)N(CCCN)C(=O)c1ccc(C)cc1` (single isomer, unassigned; (+)) gave a pIC50 in test [1] (Homo sapiens, COLO 205, 72 h) of 7.89.

For the molecule `CCC(c1nc2ccsc2c(=O)n1Cc1ccccc1)N(CCCN)C(=O)c1ccc(OC(F)(F)F)cc1` (stereo not drawn), in test [2], the pIC50 was 5.61.

Take `CCC(c1nc2ccsc2c(=O)n1Cc1ccccc1)N(CCCN)C(=O)C1CCCC1` (stereo not drawn): the pIC50 in test [2] is 5.37.

Turning to `CCC(c1nc2ccsc2c(=O)n1Cc1ccccc1)N(CCCN)C(=O)c1ccccc1C` (stereo not drawn), in test [2], the pIC50 is 5.97.

Take `CCC(c1nc2ccsc2c(=O)n1Cc1cccnc1)N(CCCN)C(=O)c1ccc(C)cc1` (stereo not drawn): the pIC50 in test [2] was 5.42.

`CCC(c1nc2ccsc2c(=O)n1Cc1ccccn1)N(CCCN)C(=O)c1ccc(C)cc1` (stereo not drawn): the pIC50 in test [2] is 5.46.

Turning to `CCC(NC(=O)c1ccc(C)cc1)c1nc2ccsc2c(=O)n1Cc1ccccc1` (stereo not drawn), in test [2], the pIC50 is 5.05.

`CCC(c1nc2snc(C)c2c(=O)n1Cc1ccccc1)N(CCCN)C(=O)c1ccc(C)c(F)c1` (stereo not drawn) showed a pIC50 in test [1] (Homo sapiens, COLO 205, 72 h) of 7.92.

As for `Cc1ccc(C(=O)N(CCCN)C(c2nc3snc(C)c3c(=O)n2Cc2ccccc2)C(C)C)cc1` (single isomer, unassigned; (-)) [AZD-4877], in test [2], the pIC50 is 6.37.

For `CCC(c1nc2snc(C)c2c(=O)n1Cc1ccc(F)cc1)N(CCCN)C(=O)c1ccc(C)cc1` (stereo not drawn), the pIC50 in test [1] (Homo sapiens, COLO 205, 72 h) was 6.98.

Consider `CCC(c1nc2ccsc2c(=O)n1Cc1cscn1)N(CCCN)C(=O)c1ccc(C)cc1` (stereo not drawn), for which the pIC50 in test [2] is 5.04.

On to `CCC(c1nc2ccsc2c(=O)n1Cc1ccccc1)N(CCCN)C(=O)C1CC1` (stereo not drawn), for which the pIC50 in test [2] was 5.17.

With `CCC(c1nc2ccsc2c(=O)[nH]1)N(CCCN)C(=O)c1ccc(C)cc1` (stereo not drawn), the pIC50 in test [2] is 5.05.

Consider `CCC(c1nc2ccsc2c(=O)n1Cc1ccccc1)N(CCCNC(C)=O)C(=O)c1ccc(C)cc1` (stereo not drawn), for which the pIC50 in test [2] was 5.53.

Turning to `CCC(c1nc2ccsc2c(=O)n1Cc1ccccc1)N(CCCN)C(=O)C1COc2ccccc2O1` (stereo not drawn), the pIC50 in test [2] was 5.64.

In turn, `Cc1ccc(C(=O)N(CCCN)C(c2nc3snc(C)c3c(=O)n2Cc2ccccc2)C(C)C)cc1` (stereo in doubt; 65) [AZD-4877] had a pIC50 in test [1] (Homo sapiens, COLO 205, 72 h) of 8.70.

As usually defined, the pIC50 is the negative decadic logarithm of the IC50, by convention in mol/L.
